These are literature values, as cited in PubChem BioAssay AID1259410 (Chemical Carcinogenesis Research Information System (CCRIS), 2018).

The test system of the data set is rodent tumor promotion studies, tumor incidence. As to the kind of experiment: CCRIS tumor promotion studies.

`O=C(O)c1cc(=O)[nH]c(=O)[nH]1`: the outcome (Carcinogen: 1,2-DIMETHYLHYDRAZINE DIHYDROCHLORIDE, 306-37-6, Doses [Carcinogen]: 100 MG/KG ONCE 18 HR AFTER 2/3 PARTIAL HEPATECTOMY, Doses [Promoter]: 0, 1% IN DIET FOR 10 WK BEGINNING 1 WK POST CARCINOGEN DOSE (STUDY DURATION: 54 WK), Route [Carcinogen]: INTRAPERITONEAL, Route [Promoter]: ORAL, Species: RAT, Strain/Sex: F344/MALE) was “liver: hepatocellular carcinoma”; the outcome (Carcinogen: 1,2-DIMETHYLHYDRAZINE DIHYDROCHLORIDE, 306-37-6, Doses [Carcinogen]: 100 MG/KG ONCE 18 HR AFTER 2/3 PARTIAL HEPATECTOMY, Doses [Promoter]: 0, 1% IN DIET FOR 20 WK BEGINNING 1 WK POST CARCINOGEN DOSE (STUDY DURATION: 54 WK), Route [Carcinogen]: INTRAPERITONEAL, Route [Promoter]: ORAL, Species: RAT, Strain/Sex: F344/MALE) was “liver: hepatocellular carcinoma”; the outcome (Carcinogen: 1,2-DIMETHYLHYDRAZINE DIHYDROCHLORIDE, 306-37-6, Doses [Carcinogen]: 100 MG/KG ONCE 18 HR AFTER 2/3 PARTIAL HEPATECTOMY, Doses [Promoter]: 0, 1% IN DIET FOR 29 WK BEGINNING 1 WK POST CARCINOGEN DOSE (STUDY DURATION: 54 WK), Route [Carcinogen]: INTRAPERITONEAL, Route [Promoter]: ORAL, Species: RAT, Strain/Sex: F344/MALE) is recorded as “liver: hepatocellular carcinoma”; the outcome (Carcinogen: 1,2-DIMETHYLHYDRAZINE DIHYDROCHLORIDE, 306-37-6, Doses [Carcinogen]: 100 MG/KG ONCE 18 HR AFTER 2/3 PARTIAL HEPATECTOMY, Doses [Promoter]: 0, 1% IN DIET FOR 40 WK BEGINNING 1 WK POST CARCINOGEN DOSE (STUDY DURATION: 54 WK), Route [Carcinogen]: INTRAPERITONEAL, Route [Promoter]: ORAL, Species: RAT, Strain/Sex: F344/MALE) is listed as “liver: hepatocellular carcinoma”; the outcome (Carcinogen: 1,2-DIMETHYLHYDRAZINE DIHYDROCHLORIDE, Doses [Carcinogen]: 100 MG/KG ONCE, 18 HR AFTER PARTIAL HEPATECTOMY, Doses [Promoter]: 1% IN DIET FOR 10 OR 13 MO BEGINNING 1 WK AFTER INITIATION, Route [Carcinogen]: INTRAPERITONEAL, Route [Promoter]: ORAL, Species: RAT, Strain/Sex: F344/MALE) was “liver: hepatocellular carcinoma”; the outcome (Carcinogen: 1,2-DIMETHYLHYDRAZINE, 540-73-8, Doses [Carcinogen]: 100 MG/KG ONCE 18 HR AFTER TWO-THIRDS PARTIAL HEPATECTOMY, Doses [Promoter]: 0, 1% IN DIET BEGINNING 1 WK POST CARCINOGEN DOSE (STUDY DURATION: 54 WK), Route [Carcinogen]: INTRAPERITONEAL, Route [Promoter]: ORAL, Species: RAT, Strain/Sex: F344/MALE) is recorded as “liver: hepatocellular carcinoma”. In addition, the outcome was “liver: carcinoma” (Carcinogen: DIETHYLNITROSAMINE, 55-18-5, Doses [Carcinogen]: 200 MG/KG BW ONCE, Doses [Promoter]: 0, 1% IN DIET FOR 4 WK BEGINNING 1 WK POST CARCINOGEN DOSE, PARTIAL HEPATECTOMY PERFORMED AT END OF SECOND WK (STUDY DUR, Route [Carcinogen]: INTRAPERITONEAL, Route [Promoter]: ORAL, Species: RAT, Strain/Sex: F344/MALE); “liver: hepatocellular carcinoma” (Carcinogen: DIETHYLNITROSAMINE, 55-18-5, Doses [Carcinogen]: 200 MG/KG ONCE, Doses [Promoter]: 0, 1% IN DIET BEGINNING 1 WK POST CARCINOGEN DOSE (STUDY DURATION: 60 WK), Route [Carcinogen]: INTRAPERITONEAL, Route [Promoter]: ORAL, Species: RAT, Strain/Sex: F344/MALE); “liver: hepatocellular carcinoma” (Carcinogen: DIETHYLNITROSAMINE, 55-18-5, Doses [Carcinogen]: 200 MG/KG ONCE, Doses [Promoter]: 0, 1% IN DIET BEGINNING 5 WK POST CARCINOGEN DOSE (STUDY DURATION: 60 WK), Route [Carcinogen]: INTRAPERITONEAL, Route [Promoter]: ORAL, Species: RAT, Strain/Sex: F344/MALE); “pancreas: papillary adenocarcinoma, carcinoma in situ” (Carcinogen: N-NITROSO(2-HYDROXYPROPYL)(2-OXOPROPYL)AMINE, 61499-28-3, Doses [Carcinogen]: 170 MG/KG (TOTAL DOSE) ADMINISTERED CONTINUOUSLY OVER 9 D VIA OSMOTIC PUMP, Doses [Promoter]: 0, 1% IN DIET BEGINNING 2 WK POST CARCINOGEN TREATMENT AND CONTINUING FOR DURATION OF STUDY (STUDY DURATION: 29 WK), Route [Carcinogen]: SUBCUTANEOUS IMPLANT, Route [Promoter]: ORAL, Species: HAMSTER, Strain/Sex: SYRIAN/FEMALE); “pancreas: carcinoma in situ, adenocarcinoma” (Carcinogen: N-NITROSO(2-HYDROXYPROPYL)(2-OXOPROPYL)AMINE, 61499-28-3, Doses [Carcinogen]: 170 MG/KG (TOTAL DOSE) INFUSED CONTINUOUSLY FOR 9 D, Doses [Promoter]: 0, 1% IN DIET FOR DURATION OF STUDY BEGINNING 2 WK POST CARCINOGEN TREATMENT (STUDY DURATION: 28 WK), Route [Carcinogen]: SUBCUTANEOUS, Route [Promoter]: ORAL, Species: HAMSTER, Strain/Sex: SYRIAN/FEMALE); “kidney: tumor; lung: adenoma” (Carcinogen: N-NITROSO(2-HYDROXYPROPYL)(2-OXOPROPYL)AMINE, 61499-28-3, Doses [Carcinogen]: 400 MG/KG (TOTAL DOSE) ADMINISTERED CONTINUOUSLY BY OSMOTIC PUMP FOR 14 D, Doses [Promoter]: 0, 1% IN DIET FOR 15 WK BEGINNING 2 WK PRIOR TO CARCINOGEN TREATMENT (STUDY DURATION: 29 WK), Route [Carcinogen]: SUBCUTANEOUS, Route [Promoter]: ORAL, Species: RAT, Strain/Sex: SPRAGUE-DAWLEY/MALE). Besides, for the setting “Carcinogen: N-NITROSO(2-HYDROXYPROPYL)(2-OXOPROPYL)AMINE, 61499-28-3, Doses [Carcinogen]: 400 MG/KG VIA OSMOTIC PUMP CONTINUOUSLY FOR 14 D, Doses [Promoter]: 0, 1% IN DIET 2 WK PRIOR TO AND 13 WK POST CARCINOGEN TREATMENT (STUDY DURATION: 27 WK), Route [Carcinogen]: SUBCUTANEOUS, Route [Promoter]: ORAL, Species: RAT, Strain/Sex: CD-1/MALE”, the outcome is “kidney: tumor; lung: adenoma”.

Turning to `ClC1C(Cl)C(Cl)C(Cl)C(Cl)C1Cl` (centres undefined), the outcome (Carcinogen: DIETHYLNITROSAMINE, 55-18-5, Doses [Carcinogen]: 5 UG/G BW IN 0.1 ML SALINE ONCE AT 15 D OF AGE, Doses [Promoter]: 0, 250 PPM IN DIET FOR 24 WK BEGINNING AT 28 D OF AGE (STUDY DURATION: 26 WK), Route [Carcinogen]: INTRAPERITONEAL, Route [Promoter]: ORAL, Species: MOUSE, Strain/Sex: B6C3F1/FEMALE) is recorded as “liver: adenoma”.

In the case of `COC(=O)[C@H]1[C@@H](OC(=O)c2ccccc2)C[C@@H]2CC[C@H]1N2C`, where the note is “Carcinogen: MURINE SARCOMA VIRUS, Doses [Promoter]: 0, 0.5 MG/KG/D FOR 3 D BEGINNING ON DAY OF VIRUS INJECTION (STUDY DURATION: 20 D), Route [Carcinogen]: INTRAMUSCULAR, Route [Promoter]: SUBCUTANEOUS, Species: MOUSE, Strain/Sex: BALB/FEMALE”, the outcome is on record as “injection site: tumor”.

As for `CCCCCCCCCC(=O)OC`, the outcome (Carcinogen: 7,12-DIMETHYLBENZ(A)ANTHRACENE, Doses [Carcinogen]: TOP, Route [Carcinogen]: DERMAL, Route [Promoter]: DERMAL, Species: MOUSE, Strain/Sex: FEMALE) was “integumentary system (skin)”.

For `CNCCC(Oc1ccc(C(F)(F)F)cc1)c1ccccc1` (centres undefined), the outcome (Carcinogen: 7,12-DIMETHYLBENZ[A]ANTHRACENE, 57-97-6, Doses [Carcinogen]: 20 MG IN 2 ML PEANUT OIL ONCE, Doses [Promoter]: 0, 16 MG/M2 5 D/WK FOR 15 WK BEGINNING POST CARCINOGEN DOSE (STUDY DURATION: 15 WK), Route [Carcinogen]: GAVAGE, Route [Promoter]: INTRAPERITONEAL, Species: RAT, Strain/Sex: SPRAGUE-DAWLEY/FEMALE) is “mammary gland: tumor” and the outcome (Carcinogen: 7,12-DIMETHYLBENZ[A]ANTHRACENE, 57-97-6, Doses [Carcinogen]: 20 MG IN 2 ML PEANUT OIL ONCE, Doses [Promoter]: 0, 40 MG/M2 5 D/WK FOR 15 WK BEGINNING POST CARCINOGEN DOSE (STUDY DURATION: 15 WK), Route [Carcinogen]: GAVAGE, Route [Promoter]: INTRAPERITONEAL, Species: RAT, Strain/Sex: SPRAGUE-DAWLEY/FEMALE) is given as “mammary gland: tumor”.

Take `O=C1C=CC(=O)c2ccccc21`: the outcome (Carcinogen: 7,12-DIMETHYLBENZ[A]ANTHRACENE, 57-97-6, Doses [Carcinogen]: 25 NMOL IN 0.2 ML ACETONE ONCE, Doses [Promoter]: 440, 880, 1760 NMOL/MOUSE 1/WK FOR 30 WK BEGINNING 2 WK POST CARCINOGEN DOSE (STUDY DURATION: 32 WK), Doses [Promoter]: 440, 880, 1760 NMOL/MOUSE 1/WK FOR 30 WK BEGINNING 2 WK POST CARCINOGEN DOSE (STUDY DURATION: 32 WK), Route [Carcinogen]: DERMAL, Route [Promoter]: DERMAL, Species: MOUSE, Strain/Sex: SENCAR/FEMALE) is “skin: papilloma”.
